Data as given in patent US20130156701A1, “METHOD OF PREPARING ETHACRYNIC AMIDE DERIVATIVES AND APPLICATION THEREOF” (NATIONAL TSING HUA UNIVERSITY, priority 2011, published 2013).
Blank lines part the entries; values can stand above or below the molecule they belong to.

Tests used:
[1] = parent ethacrynic acid, comparison value; cited from earlier work
[2] = test system: HEL cells; test: trypan blue exclusion assay, cell viability after FBuEA treatment; assay type: cell-based, human; conditions: 48 hr, read-out: IC50 (concentration required to decrease 50% cell viability)
Procedure: (§1) Human lung cancer cell line A549, human erythroleukemia cell line (HEL) and human embryonic kidney 293T cell line were cultivated in the RPMI-1640 medium (GIBCO) supplemented with 10% fetal bovine serum, 100 U/mL penicillin, 0.1 mg/mL streptomycin and 2 mM L-glutamine (GIBCO) at 37° C. in 5% CO2 incubator. 293T was a non-tumorigenic cell line as a […] control in cell viability experiment.
(§2) To detect the cytotoxicity effects of FBuEA (compound of formula 10), A549 and HEL were treated with different concentration of FBuEA for 48 hr and compared with 293T. For the cytotoxicity study, trypan blue exclusion assay was performed to quantity the cell viability, 5×10^4 cells and the medium with different concentration of FBuEA (from 0 to 20 µM) were loaded in the 48-well plates for 48 hr. After 48 hr, cells mixed with trypan blue (GIBICO), just count the cells that have excluded the dye. Each count repeated three times and calculated the average of concentration. The cytotoxicity effects of EBuEA to A549, HEL and 293T cells were indicated by IC50 value (comparing with untreated cells, the concentration of EBuEA required to decrease 50% cell viability).

[3] = test system: A549 cells; test: as above; assay type: cell-based, human; conditions: 48 hr, read-out: IC50 (concentration required to decrease 50% cell viability)
Procedure: as §1, §2

[4] = test system: 293T cells; test: as above; assay type: cell-based, human; conditions: 48 hr, read-out: IC50 (concentration required to decrease 50% cell viability)
Procedure: as §1, §2

[5] = PET imaging of the liver of the TAA-treated CCA rat; assay type: in vivo; conditions: CCA rat receiving TAA for 18 weeks
Procedure: The rats were anesthetized using 1 L/min 2% isoflurane (100% oxygen). After the rats had been anesthetized, they were given ^18F-FBuEA (11 MBq) via the lateral tail vein. After the injection, the rats were fixed in the prone position on a carbon bed.
Dynamic imaging (0-120 min) single-frame scans were acquired with a small-animal PET camera (microPET R4; Concorde Microsystems Inc.). The region of interest (ROI) was disposed in the tumor region by hand, the image reconstructions of ROI were processed with ASIPro software (Concorde Microsystems INC.). Using microPET, the tumor volumes were determined by the intake of ^18F-FBuEA (% ID/g).
Being a promising imaging probe, [^18F]FBuEA should be capable of detecting a disease at its early stage. […] Then the CCA rat along with the normal rat was subsequently imaged with [^18F]FBuEA 5 days later. […] The same CCA rat after feeding for 23 weeks of TAA was imaged again with [^18F]FBuEA but the imaging time was shortened to 5-10 min for optimization test (FIG. 11(D) and (E)). Whereas the tumor lesion was still dark and the cold spot was similar to that of 18 week rat. From the above comparisons, the optimized imaging sampling times appeared to be 0-30 min.

Structure (SMILES): C=C(CC)C(=O)c1ccc(OCC(=O)O)c(Cl)c1Cl [ethacrynic acid]
- plasma half-life [1]: 30 to 60 min

- IC50 [3]: 14 µM
Structure (SMILES): C=C(CC)C(=O)c1ccc(OCC(=O)NCCCCF)c(Cl)c1Cl [FBuEA, N-(4-fluorobutyl)ethacrynic amide]
- IC50 [2]: 5 µM
- IC50 [4]: 20 µM

Structure (SMILES): OC[C@H]1OC(O)[C@H]([18F])[C@@H](O)[C@@H]1O (some centres unmarked) [[^18F]FDG, [^18F]fluorodeoxyglucose, reference compound]
- PET signal at the tumor lesion [5]: significant hot spot
